Test results reported in ChEMBL document CHEMBL5506042, “Discovery of the Clinical Candidate IDOR-1117-2520: A Potent and Selective Antagonist of CCR6 for Autoimmune Diseases” (J Med Chem, 2024).
Active and inactive are the calls of the source. The calls are words filed in the database; no cut-off is given here.

Assays:
[1] = Fraction unbound in mouse plasma at 1 uM by rapid equilibrium dialysis based LC-MS/MS analysis; type: ADME, cell-free
[2] = Intrinsic clearance in rat liver microsomes at 0.1 uM measured for 15 mins in presence of NADPH regenerating system by LC-MS/MS analysis; type: ADME, Microsome; settings: read-out: CLH
[3] = Chemical stability of the compound at 0.1 mg/ml at pH 10 irradiated with xenon lamp at 250W/m2 incubated for 24 hrs by stress test; type: physicochemical; settings: buffer, read-out: Stability
[4] = Cmax in C57BL/6 mouse at 15 mg/kg, po; type: ADME, organism-based; settings: in vivo
[5] = Chemical stability of the compound at 0.1 mg/ml at pH 4 irradiated with xenon lamp at 250W/m2 incubated for 24 hrs by stress test; type: physicochemical; settings: buffer, read-out: Stability
[6] = Tmax in C57BL/6 mouse at 15 mg/kg, po; type: ADME, organism-based; settings: in vivo
[7] = Cytotoxicity against human HepG2 cells assessed as reduction in cell viability incubated for 72 hrs by CellTiter-Glo assay
[8] = Intrinsic clearance in rat liver microsomes at 1 uM measured for 15 mins in presence of NADPH regenerating system by LC-MS/MS analysis; type: ADME, Microsome; settings: read-out: CLH
[9] = Clearance in Wistar rat at 1 mg/kg, iv; type: ADME, organism-based; settings: in vivo
[10] = Intrinsic clearance in mouse liver microsomes at 1 uM measured for 15 mins in presence of NADPH regenerating system by LC-MS/MS analysis; type: ADME, Microsome; settings: read-out: CLH
[11] = Cmax in C57BL/6 mouse at 50 mg/kg, po; type: ADME, organism-based; settings: in vivo
[12] = Chemical stability of the compound at 0.1 mg/ml at pH 2 irradiated with xenon lamp at 250W/m2 incubated for 24 hrs by stress test; type: physicochemical; settings: buffer, read-out: Stability
[13] = Volume of distribution at steady state in Wistar rat at 1 mg/kg, iv; type: ADME, organism-based; settings: in vivo, read-out: Vdss
[14] = Tmax in C57BL/6 mouse at 50 mg/kg, po; type: ADME, organism-based; settings: in vivo
[15] = Tmax in Wistar rat at 50 mg/kg, po; type: ADME, organism-based; settings: in vivo
[16] = Oral bioavailability in Wistar rat at 50 mg/kg; type: ADME, organism-based; settings: in vivo
[17] = Cmax in Wistar rat at 50 mg/kg, po; type: ADME, organism-based; settings: in vivo
[18] = AUC in Wistar rat at 50 mg/kg, po; type: ADME, organism-based; settings: in vivo
[19] = Cmax in Wistar rat at 10 mg/kg, po; type: ADME, organism-based; settings: in vivo
[20] = system: Mus musculus; assay: Inhibition of chemotaxis of CCR6-positive B cells in bronchoalveolar lavage fluid in ovalbumin-induced inflammation BALB/c mouse model at 15 mg/kg/day, po treated with OVA from day 1 to day 18 and with compound from day 8 to 18 and measured at 24 hrs post last dose of OVA challenge by flow cytometry; type: functional, organism-based; settings: time 11.0 day
[21] = Fraction unbound in rat plasma at 1 uM by rapid equilibrium dialysis based LC-MS/MS analysis; type: ADME, cell-free
[22] = system: HepaRG; assay: Cytotoxicity against human HepaRG cells assessed as leakage of intracellular LDH at 30 uM incubated for 24 hrs by spectrophotometry
[23] = system: Mus musculus; assay: Inhibition of chemotaxis of CCR6-positive B cells in bronchoalveolar lavage fluid in ovalbumin-induced inflammation BALB/c mouse model at 15 mg/kg/day, po treated with OVA and compound from day 1 to day 18 and measured at 24 hrs post last dose of OVA challenge by flow cytometry; type: functional, organism-based; settings: time 18.0 day
[24] = Lipophilicity, LogD of the compound in 1-Octanol/PBS at pH 7.4 by miniaturized shake flask method
[25] = AUC in Wistar rat at 10 mg/kg, po; type: ADME, organism-based; settings: in vivo
[26] = Oral bioavailability in Wistar rat at 10 mg/kg; type: ADME, organism-based; settings: in vivo
[27] = Intrinsic clearance in human liver microsomes at 1 uM measured for 15 mins in presence of NADPH regenerating system measured per mg protein by LC-MS/MS analysis; type: ADME, Microsome; settings: read-out: CLH
[28] = Chemical stability of the compound at 0.1 mg/ml at pH 9 irradiated with xenon lamp at 250W/m2 incubated for 24 hrs by stress test; type: physicochemical; settings: buffer, read-out: Stability
[29] = biological target: T1, C-C chemokine receptor type 6 (Mus musculus, UniProt O54689); assay: Antagonist activity at CCR6 in C57BL/6J mouse whole blood assessed as inhibition of CCL20-stimulated receptor internalization in lymphocytes incubated for 40 mins followed by CCL20 addition and measured after 40 mins by flow cytometry
T1 sequence (O54689 whole entry): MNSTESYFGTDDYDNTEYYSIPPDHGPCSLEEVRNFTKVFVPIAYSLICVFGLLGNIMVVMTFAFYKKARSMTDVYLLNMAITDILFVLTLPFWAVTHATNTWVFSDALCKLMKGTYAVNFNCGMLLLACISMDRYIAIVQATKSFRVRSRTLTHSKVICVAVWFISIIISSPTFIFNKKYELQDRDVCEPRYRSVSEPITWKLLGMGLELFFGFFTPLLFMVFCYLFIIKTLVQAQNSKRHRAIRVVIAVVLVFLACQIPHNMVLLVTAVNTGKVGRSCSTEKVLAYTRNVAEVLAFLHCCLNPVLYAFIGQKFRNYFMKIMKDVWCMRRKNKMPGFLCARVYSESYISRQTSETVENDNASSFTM

[30] = Half life in Wistar rat at 1 mg/kg, iv; type: ADME, organism-based; settings: in vivo
[31] = fCmax in po dosed C57BL/6 mouse; type: ADME, organism-based; settings: in vivo
[32] = AUC in C57BL/6 mouse at 15 mg/kg, po; type: ADME, organism-based; settings: in vivo
[33] = Intrinsic clearance in rat liver microsomes at 3 uM measured for 15 mins in presence of NADPH regenerating system by LC-MS/MS analysis; type: ADME, Microsome; settings: read-out: CLH
[34] = Tmax in Wistar rat at 10 mg/kg, po; type: ADME, organism-based; settings: in vivo
[35] = AUC in C57BL/6 mouse at 50 mg/kg, po; type: ADME, organism-based; settings: in vivo
[36] = Chemical stability of the compound at 0.1 mg/ml at pH 7 irradiated with xenon lamp at 250W/m2 incubated for 24 hrs by stress test; type: physicochemical; settings: buffer, read-out: Stability

CN1CC(C)(C(O)(c2ccc(OC(F)(F)F)cc2)c2cncc(N3CCCC3)c2)C1 (racemic)
fraction unbound at 1 µM [1]: 0.05
microsomal CLint at […], 0.1 µM [2]: > 1250 µL/min/mg
remaining at 24 h, 0.1 mg/ml [3]: 2%
Cmax [4]: 30 ng/mL
remaining at 24 h, 0.1 mg/ml [5]: 4%
Tmax [6]: 30 min
IC50 at 72 h [7]: 11 µM
microsomal CLint at […], 1 µM [8]: 750 µL/min/mg
clearance [9]: 62 mL/min/kg
microsomal CLint at […], 1 µM [10]: 666 µL/min/mg
Cmax [11]: 1100 ng/mL
remaining at 24 h, 0.1 mg/ml [12]: 97%
Vd [13]: 11 L/kg
Tmax [14]: 120 min
Tmax [15]: 30 min
bioavailability [16]: 11%
Cmax [17]: 308 ng/mL
AUC [18]: 1500 ng·h/mL
Cmax [19]: 110 ng/mL
inhibition [20]: Active
fraction unbound at 1 µM [21]: 0.06
Activity [22]: Non-Toxic
inhibition [23]: Active
logD [24]: 2.2
AUC [25]: 165 ng·h/mL
bioavailability [26]: 6%
microsomal CLint at […], 1 µM [27]: 146 µL/min/mg
remaining at 24 h, 0.1 mg/ml [28]: 2%
IC50 [29]: 0.0013 µM
half-life [30]: 144 min
fCmax [31]: 55 ng/mL
AUC [32]: 145 ng·h/mL
microsomal CLint at […], 3 µM [33]: 450 µL/min/mg
Tmax [34]: 30 min
AUC [35]: 5030 ng·h/mL
remaining at 24 h, 0.1 mg/ml [36]: 3%
